Assays:
Oxidized LDL = assay: Oxidized LDL, CHASE clinical study; assay type: in vivo, human; set-up: Oxidized LDL Mean (SD) / Oxidized LDL Median / Oxidized LDL Min / Oxidized LDL Max / Oxidized LDL V2 to V6 Change Median / Oxidized LDL V2 to V6 Change Max: unit not given here; conditions: all subjects; for Oxidized LDL V2 to V6 % Change Max / Oxidized LDL V2 to V6 % Change Mean (SD) / Oxidized LDL V2 to V6 % Change Median / Oxidized LDL V2 to V6 % Change Min / Oxidized LDL V2 to V6 Change Max / Oxidized LDL V2 to V6 Change Mean (SD) / Oxidized LDL V2 to V6 Change Median / Oxidized LDL V2 to V6 Change Min: baseline to Week 12
From the text: Samples shall be obtained for TNF-α, IL-1β, IL-6, IFN-γ, and oxLDL at V2, V4, V6, and V8 I.
(§1) Table 7M provides the changes in lipid levels (mg/dL) (V2 to V6) for subjects.

LDL = assay: Fasting lipid panel: LDL, CHASE clinical study; assay type: in vivo, human; conditions: for LDL V2 to V6 % Change Max / LDL V2 to V6 % Change Mean (SD) / LDL V2 to V6 % Change Median / LDL V2 to V6 % Change Min / LDL V2 to V6 Change Max / LDL V2 to V6 Change Mean (SD) / LDL V2 to V6 Change Median / LDL V2 to V6 Change Min: baseline to Week 12
From the text: Blood samples shall be obtained under fasted conditions for a lipid panel at V2, V4, V6, V7, and V8. This panel shall include total cholesterol, LDL-C, VLDL-C, HDL-C, and triglycerides. A minimum eight-hour fast (water allowed) is required for the lipid panel.
Fasting lipid profiles and fasting chemistry panels may be obtained within the visit time window on a day separate from the scheduled office visit, within two days before or after the other study procedures. A minimum of eight hours fasted (water allowed ad lib) is required.
as §1

[1] = Group X 12 mg BID, V2 baseline pre-dose
[2] = Group Z 48 mg BID, V2 baseline pre-dose
[3] = Group X 12 mg BID, V2 baseline pre-dose, all subjects
[4] = Group X 12 mg BID, V2 baseline pre-dose, subjects with hyperlipidemia
[5] = Group X 12 mg BID, V6 Week 12, all subjects
[6] = Group X 12 mg BID, V6 Week 12, subjects with hyperlipidemia
[7] = Group X 12 mg BID, all subjects
[8] = Group X 12 mg BID, subjects with hyperlipidemia
[9] = Group Z 48 mg BID, V2 baseline pre-dose, all subjects
[10] = Group Z 48 mg BID, V2 baseline pre-dose, subjects with hyperlipidemia
[11] = Group Z 48 mg BID, V6 Week 12, all subjects
[12] = Group Z 48 mg BID, V6 Week 12, subjects with hyperlipidemia
[13] = Group Z 48 mg BID, all subjects
[14] = Group Z 48 mg BID, subjects with hyperlipidemia

CC1=C(/C=C/C(C)=C/C=C/C(C)=C/C=C/C=C(C)/C=C/C=C(C)/C=C/C2=C(C)C(=O)C(O)CC2(C)C)C(C)(C)CC(O)C1=O (stereo not drawn) [Astaxanthin, astaxanthin]
Oxidized LDL Max (Oxidized LDL; [1]): 87.00 | Oxidized LDL Mean (SD) (Oxidized LDL; [1]): 51.64 (18.34) | Oxidized LDL Median (Oxidized LDL; [1]): 49.00 | Oxidized LDL Min (Oxidized LDL; [1]): 29.00 | Oxidized LDL Max (Oxidized LDL; Group X 12 mg BID, V6 Week 12): 85.00 | Oxidized LDL Mean (SD) (Oxidized LDL; Group X 12 mg BID, V6 Week 12): 51.18 (17.62) | Oxidized LDL Median (Oxidized LDL; Group X 12 mg BID, V6 Week 12): 46.00 | Oxidized LDL Min (Oxidized LDL; Group X 12 mg BID, V6 Week 12): 34.00 | Oxidized LDL V2 to V6 % Change Max (Oxidized LDL; Group X 12 mg BID): 17.24% | Oxidized LDL V2 to V6 % Change Mean (SD) (Oxidized LDL; Group X 12 mg BID): 0.41 (12.46) % | Oxidized LDL V2 to V6 % Change Median (Oxidized LDL; Group X 12 mg BID): 2.86% | Oxidized LDL V2 to V6 % Change Min (Oxidized LDL; Group X 12 mg BID): −26.0% | Oxidized LDL V2 to V6 Change Max (Oxidized LDL; Group X 12 mg BID): 6.00 | Oxidized LDL V2 to V6 Change Mean (SD) (Oxidized LDL; Group X 12 mg BID): −0.45 (5.65) | Oxidized LDL V2 to V6 Change Median (Oxidized LDL; Group X 12 mg BID): 1.00 | Oxidized LDL V2 to V6 Change Min (Oxidized LDL; Group X 12 mg BID): −13.0 | Oxidized LDL Max (Oxidized LDL; [2]): 86.00 | Oxidized LDL Mean (SD) (Oxidized LDL; [2]): 55.00 (17.80) | Oxidized LDL Median (Oxidized LDL; [2]): 59.00 | Oxidized LDL Min (Oxidized LDL; [2]): 24.00 | Oxidized LDL Max (Oxidized LDL; Group Z 48 mg BID, V6 Week 12): 77.00 | Oxidized LDL Mean (SD) (Oxidized LDL; Group Z 48 mg BID, V6 Week 12): 46.22 (15.21) | Oxidized LDL Median (Oxidized LDL; Group Z 48 mg BID, V6 Week 12): 48.00 | Oxidized LDL Min (Oxidized LDL; Group Z 48 mg BID, V6 Week 12): 25.00 | Oxidized LDL V2 to V6 % Change Max (Oxidized LDL; Group Z 48 mg BID): 24.39% | Oxidized LDL V2 to V6 % Change Mean (SD) (Oxidized LDL; Group Z 48 mg BID): −12.7 (19.64) % | Oxidized LDL V2 to V6 % Change Median (Oxidized LDL; Group Z 48 mg BID): −10.1% | Oxidized LDL V2 to V6 % Change Min (Oxidized LDL; Group Z 48 mg BID): −43.8% | Oxidized LDL V2 to V6 Change Max (Oxidized LDL; Group Z 48 mg BID): 10.00 | Oxidized LDL V2 to V6 Change Mean (SD) (Oxidized LDL; Group Z 48 mg BID): −8.22 (12.33) | Oxidized LDL V2 to V6 Change Median (Oxidized LDL; Group Z 48 mg BID): −4.00 | Oxidized LDL V2 to V6 Change Min (Oxidized LDL; Group Z 48 mg BID): −36.0 | LDL Max (LDL; [3]): 220.0 mg/dL | LDL Mean (SD) (LDL; [3]): 111.9 (61.26) mg/dL | LDL Median (LDL; [3]): 112.0 mg/dL | LDL Min (LDL; [3]): 37.00 mg/dL | LDL Max (LDL; [4]): 220.0 mg/dL | LDL Mean (SD) (LDL; [4]): 99.00 (66.54) mg/dL | LDL Median (LDL; [4]): 73.00 mg/dL | LDL Min (LDL; [4]): 37.00 mg/dL | LDL Max (LDL; [5]): 236.0 mg/dL | LDL Mean (SD) (LDL; [5]): 109.6 (67.65) mg/dL | LDL Median (LDL; [5]): 102.0 mg/dL | LDL Min (LDL; [5]): 40.00 mg/dL | LDL Max (LDL; [6]): 236.0 mg/dL | LDL Mean (SD) (LDL; [6]): 94.57 (70.92) mg/dL | LDL Median (LDL; [6]): 60.00 mg/dL | LDL Min (LDL; [6]): 40.00 mg/dL | LDL V2 to V6 % Change Max (LDL; [7]): 21.62% | LDL V2 to V6 % Change Mean (SD) (LDL; [7]): −3.46 (13.64) % | LDL V2 to V6 % Change Median (LDL; [7]): −7.02% | LDL V2 to V6 % Change Min (LDL; [7]): −21.6% | LDL V2 to V6 Change Max (LDL; [7]): 17.00 mg/dL | LDL V2 to V6 Change Mean (SD) (LDL; [7]): −2.30 (12.98) mg/dL | LDL V2 to V6 Change Median (LDL; [7]): -6.50 mg/dL | LDL V2 to V6 Change Min (LDL; [7]): -18.0 mg/dL | LDL V2 to V6 % Change Max (LDL; [8]): 21.62% | LDL V2 to V6 % Change Mean (SD) (LDL; [8]): −5.19 (15.13) % | LDL V2 to V6 % Change Median (LDL; [8]): −10.2% | LDL V2 to V6 % Change Min (LDL; [8]): −21.6% | LDL V2 to V6 Change Max (LDL; [8]): 16.00 mg/dL | LDL V2 to V6 Change Mean (SD) (LDL; [8]): −4.43 (12.39) mg/dL | LDL V2 to V6 Change Median (LDL; [8]): -11.0 mg/dL | LDL V2 to V6 Change Min (LDL; [8]): -18.0 mg/dL | LDL Max (LDL; [9]): 206.0 mg/dL | LDL Mean (SD) (LDL; [9]): 99.13 (46.59) mg/dL | LDL Median (LDL; [9]): 84.00 mg/dL | LDL Min (LDL; [9]): 34.00 mg/dL | LDL Max (LDL; [10]): 166.0 mg/dL | LDL Mean (SD) (LDL; [10]): 89.33 (40.83) mg/dL | LDL Median (LDL; [10]): 75.50 mg/dL | LDL Min (LDL; [10]): 34.00 mg/dL | LDL Max (LDL; [11]): 176.0 mg/dL | LDL Mean (SD) (LDL; [11]): 90.31 (37.82) mg/dL | LDL Median (LDL; [11]): 81.00 mg/dL | LDL Min (LDL; [11]): 49.00 mg/dL | LDL Max (LDL; [12]): 176.0 mg/dL | LDL Mean (SD) (LDL; [12]): 82.42 (37.25) mg/dL | LDL Median (LDL; [12]): 70.00 mg/dL | LDL Min (LDL; [12]): 49.00 mg/dL | LDL V2 to V6 % Change Max (LDL; [13]): 15.71% | LDL V2 to V6 % Change Mean (SD) (LDL; [13]): −14.5 (17.99) % | LDL V2 to V6 % Change Median (LDL; [13]): −12.0% | LDL V2 to V6 % Change Min (LDL; [13]): −50.0% | LDL V2 to V6 Change Max (LDL; [13]): 11.00 mg/dL | LDL V2 to V6 Change Mean (SD) (LDL; [13]): −18.9 (24.97) mg/dL | LDL V2 to V6 Change Median (LDL; [13]): -11.0 mg/dL | LDL V2 to V6 Change Min (LDL; [13]): -83.0 mg/dL | LDL V2 to V6 % Change Max (LDL; [14]): 15.00% | LDL V2 to V6 % Change Mean (SD) (LDL; [14]): −17.4 (18.43) % | LDL V2 to V6 % Change Median (LDL; [14]): −12.5% | LDL V2 to V6 % Change Min (LDL; [14]): −50.0% | LDL V2 to V6 Change Max (LDL; [14]): 9.00 mg/dL | LDL V2 to V6 Change Mean (SD) (LDL; [14]): −20.5 (26.25) mg/dL | LDL V2 to V6 Change Median (LDL; [14]): -11.0 mg/dL | LDL V2 to V6 Change Min (LDL; [14]): -83.0 mg/dL

— US20200085776A1, “Methods of Reducing C-Reactive Protein and/or Treating Cardiovascular Disease” (CARDAX, INC., priority 2018, published 2020)
